According to patent publication EP0564356A1, “4-phenylaminomethylimidazole derivatives, process for their preparation, angiotensin II receptor antagonists and their application in therapy” (FOURNIER INDUSTRIE ET SANTE, priority 1992, dated 1993):

These compounds were tested against T1, récepteur vasculaire de l'angiotensine II (Oryctolagus cuniculus, UniProt P34976) (assay: Antagonism of the angiotensin II-induced contractile response in isolated rabbit aortic rings). Details: contraction by angiotensine II 3.10⁻⁹ M, test product preincubated 15 minutes, 37°C.
T1 construct: réponse contractile induite par l'angiotensine II dans des anneaux isolés d'aorte de lapin; from tissue; host or cells: isolated rabbit aortic rings
T1 sequence (P34976 1-359): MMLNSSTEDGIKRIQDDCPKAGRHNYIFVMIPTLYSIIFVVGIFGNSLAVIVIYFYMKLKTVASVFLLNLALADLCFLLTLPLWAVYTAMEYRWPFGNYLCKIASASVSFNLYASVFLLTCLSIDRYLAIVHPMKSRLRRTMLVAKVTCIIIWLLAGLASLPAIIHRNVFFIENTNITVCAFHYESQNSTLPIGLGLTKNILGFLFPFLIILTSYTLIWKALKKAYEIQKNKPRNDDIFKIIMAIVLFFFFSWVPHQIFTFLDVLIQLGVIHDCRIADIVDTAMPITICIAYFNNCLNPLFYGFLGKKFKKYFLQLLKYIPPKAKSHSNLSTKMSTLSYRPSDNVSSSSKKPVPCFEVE
Set-up: species or system lapin
Procedure: L'activité des composés selon l'invention comme antagonistes du récepteur vasculaire de l'angiotensine II a été évaluée par leur efficacité à antagoniser la réponse contractile induite par l'angiotensine II dans des anneaux isolés d'aorte de lapin. Les anneaux sont suspendus dans un bain de Krebs-Henseleit maintenu à 37°C et aéré par un mélange O₂/CO₂ (95/5 , v/v) puis étirés à une tension de repos de 2 g. Après une heure de repos, on provoque une contraction par l'angiotensine II (3.10⁻⁹ M) en présence du produit à tester préincubé pendant 15 minutes. La concentration (exprimée en nanomole) de produit à tester produisant une inhibition de 50 % de la réponse contractile (IC₅₀) est calculée à partir de la courbe concentration-réponse . Les résultats obtenus avec un certain nombre de composés selon l'invention sont regroupés dans le tableau VIII.

IC50 [nM]	Structure (SMILES)
7.1	CCCCc1ncc(Cn2c(C(=O)O)cc3ccccc32)n1Cc1ccc(C(=O)O)cc1 [compound 33]
8.4	CCCCc1nc(Cl)c(Cn2c(C(=O)O)cc3ccccc32)n1Cc1ccc(C(=O)O)cc1 [compound 34]
1.2	CCCCc1ncc(CNc2cc([N+](=O)[O-])ccc2C(=O)O)n1Cc1ccc(C(=O)O)cc1 [compound 35]
7	CCCc1ncc(CNc2ccccc2C(=O)O)n1Cc1ccc(C(=O)O)cc1 [compound 36]
106	CCCCc1nc(Cl)c(CNc2c(Cl)cc(Cl)cc2C(=O)O)n1Cc1ccc(C(=O)O)cc1 [compound 39]
57.6	CCCCc1nc(Cl)c(CNc2c(C(=O)O)cc(OC)c(OC)c2OC)n1Cc1ccc(C(=O)O)cc1 [compound 40]
5.1	CCCCc1nc(Cl)c(CNc2ccccc2C(=O)O)n1Cc1ccc(C(=O)O)cc1Cl [compound 41]
5.1	CCCc1nc(Cl)c(CNc2ccccc2C(=O)O)n1Cc1ccc(C(=O)O)cc1 [compound 42]
6.3	CCCCc1nc(C(F)(F)F)c(CNc2ccccc2C(=O)O)n1Cc1ccc(C(=O)O)cc1 [compound 43]
5.3	CCCCc1nc(I)c(CNc2ccccc2C(=O)O)n1Cc1ccc(C(=O)O)cc1 [compound 44]
6.7	CCCCc1nc(Cl)c(CNc2ccc(C)cc2C(=O)O)n1Cc1ccc(C(=O)O)cc1 [compound 45]
10.5	CCCCc1nc(Cl)c(CNc2cc([N+](=O)[O-])ccc2C(=O)O)n1Cc1ccc(C(=O)O)cc1 [compound 46]
71.3	CCCCc1nc(Cl)c(CNc2cc3ccccc3cc2C(=O)O)n1Cc1ccc(C(=O)O)cc1 [compound 47]
5.3	CCCCc1nc(Cl)c(CNc2cc(Cl)ccc2C(=O)O)n1Cc1ccc(C(=O)O)cc1 [compound 48]
13.2	CCCCc1nc(Cl)c(CNc2ccc(Cl)cc2C(=O)O)n1Cc1ccc(C(=O)O)cc1 [compound 49]
5.7	CCCCc1nc(Cl)c(CNc2ccccc2C(=O)O)n1Cc1ccc(C(=O)O)cc1 [compound 50]
10.8	CCCCc1nc(Cl)c(CNc2ccccc2C(=O)O)n1Cc1ccc(-c2nnn[nH]2)cc1 [compound 51]
40.2	CCCCc1nc(Cl)c(CNc2ccccc2-c2nnn[nH]2)n1Cc1ccc(C(=O)O)cc1 [compound 52]
69.1	CCCCc1nc(Cl)c(CN(C(C)=O)c2ccccc2C(=O)O)n1Cc1ccc(C(=O)O)cc1 [compound 55]

IC50 [nM]	Structure (SMILES)
8.8	CCCCc1nc(Cl)c(CNc2ccccc2C(=O)O)n1Cc1ccc(C(=O)NS(=O)(=O)c2ccccc2C)cc1 [compound 66]
1.5	CCCCc1ncc(CNc2ccccc2C(=O)O)n1Cc1ccc(C(=O)NS(=O)(=O)c2ccccc2C)cc1 [compound 67]
90	CCCCc1ncc(CNc2ccccc2C(=O)OCC(=O)N(CC)CC)n1Cc1ccc(C(=O)OC)cc1 [compound 76]
35	CCCCc1ncc(CNc2ccccc2C(=O)OCC(=O)N(CCC)CCC)n1Cc1ccc(C(=O)O)cc1 [compound 134]
10	CCCCc1ncc(CNc2ccccc2C(=O)OCC(=O)OCC)n1Cc1ccc(C(=O)O)cc1 [compound 141]
40	CCCCc1ncc(CNc2ccccc2C(=O)OC(C)OC(=O)C2CCCCC2)n1Cc1ccc(C(=O)O)cc1 (centres unmarked) [compound 145]
12	CCCCCC(=O)OCOC(=O)c1ccccc1NCc1cnc(CCCC)n1Cc1ccc(C(=O)O)cc1 [compound 148]
5	CCCCc1ncc(CNc2ccccc2C(=O)OCOC(=O)CCC)n1Cc1ccc(C(=O)O)cc1 [compound 149]
8.7	CCCCc1ncc(CNc2ccccc2C(=O)OCC(=O)CC)n1Cc1ccc(C(=O)O)cc1 [compound 155]
82	CCCCc1ncc(CNc2ccccc2C(=O)OCCc2ccccc2)n1Cc1ccc(C(=O)O)cc1 [compound 156]
54	CCCCc1ncc(CNc2ccccc2C(=O)Oc2ccccc2)n1Cc1ccc(C(=O)O)cc1 [compound 157]
75	CCCCc1ncc(CNc2ccccc2C(=O)OCCOC)n1Cc1ccc(C(=O)O)cc1 [compound 158]
64	CCCCc1ncc(CNc2ccccc2C(=O)OCCC(C)C)n1Cc1ccc(C(=O)O)cc1 [compound 161]
50	CCCCc1ncc(CNc2ccccc2C(=O)OCC2CC2)n1Cc1ccc(C(=O)O)cc1 [compound 163]
40	CCCCc1ncc(CNc2ccccc2C(=O)OCC(C)C)n1Cc1ccc(C(=O)O)cc1 [compound 164]
15	CCCCOC(=O)c1ccccc1NCc1cnc(CCCC)n1Cc1ccc(C(=O)O)cc1 [compound 166]
80	CCCCCOC(=O)c1ccccc1NCc1cnc(CCCC)n1Cc1ccc(C(=O)O)cc1 [compound 170]
80	CCCCc1ncc(CNc2ccccc2C(=O)O)n1Cc1ccc(C(=O)OCC)cc1 [compound 174]
67	CCCCc1ncc(CNc2ccccc2C(=O)O)n1Cc1ccc(C(=O)OCC2CC2)cc1 [compound 178]

IC50 [nM]	Structure (SMILES)
80	CCCCc1ncc(CNc2ccccc2C(=O)OCC(=O)N(CCC)CCC)n1Cc1ccc(C(=O)OCC(=O)N(CCC)CCC)cc1 [compound 181]
7	CCCCc1ncc(CNc2ccccc2C(=O)OCOC(=O)CCC)n1Cc1ccc(C(=O)NS(=O)(=O)c2ccccc2C)cc1 [compound 187]
4.6	CCCCc1nc(SC)c(CNc2ccccc2C(=O)O)n1Cc1ccc(C(=O)O)cc1 [compound 198]
10	CCCCc1ncc(CNc2ccccc2C(=O)O)n1Cc1ccc(C(=O)NS(=O)(=O)c2cccc(Cl)c2)cc1 [compound 201]
14.7	CCCCc1ncc(CNc2ccccc2C(=O)O)n1Cc1ccc(C(=O)NS(=O)(=O)c2ccc(Cl)cc2)cc1 [compound 202]
4.4	CCCCc1ncc(CNc2ccccc2C(=O)O)n1Cc1ccc(C(=O)NS(=O)(=O)c2ccccc2)cc1 [compound 203]
9.5	CCCCc1ncc(CNc2ccccc2C(=O)O)n1Cc1ccc(C(=O)NS(=O)(=O)c2ccc(OC)cc2)cc1 [compound 204]
5.5	CCCCc1ncc(CNc2ccccc2C(=O)O)n1Cc1ccc(C(=O)NS(C)(=O)=O)cc1 [compound 205]
70	CCCCc1ncc(CNc2ccccc2C(N)=O)n1Cc1ccc(C(=O)O)cc1 [compound 209]
84	CCCCNC(=O)c1ccccc1NCc1cnc(CCCC)n1Cc1ccc(C(=O)O)cc1 [compound 210]
0.8	CCCCc1ncc(CNc2ccccc2C(=O)O)n1Cc1ccc(C(=O)NS(=O)(=O)c2ccccc2Cl)cc1 [compound 211]
46	CCCc1ncc(CNc2cc([N+](=O)[O-])ccc2C(=O)O)n1Cc1ccc(C(=O)O)cc1 [compound 212]
6	CCCCc1ncc(CNc2cc(N=[N+]=[N-])ccc2C(=O)O)n1Cc1ccc(C(=O)O)cc1 [compound 226]
2	CCCCc1ncc(CNc2ccccc2C(=O)O)n1Cc1ccc(C(=O)NS(=O)(=O)c2ccccc2N=[N+]=[N-])cc1 [compound 228]
100	CCCCc1ncc(CNc2ccccc2C(=O)OCC2COC(C)(C)O2)n1Cc1ccc(C(=O)O)cc1 (centres unmarked) [exemple 26, acide 2-[[[2-butyl-1-[(4-carboxyphényl)méthyl]-1H-imidazol-5-yl]méthyl]amino]-benzoïque, 2,2-diméthyl-1,3-dioxolane-4-yl-méthyl ester]
80	CCCCc1ncc(CNc2ccccc2C(=O)OCC(O)CO)n1Cc1ccc(C(=O)O)cc1 (centres unmarked) [exemple 28, acide 2-[[[2-butyl-1-[(4-carboxyphényl)méthyl]-1H-imidazol-5-yl]méthyl]amino]-benzoïque, 2,3-dihydroxy-propyl ester]
3.6	CCCCc1ncc(CNc2ccccc2C(=O)O)n1Cc1ccc(C(=O)O)cc1 [exemple 32, acide 2-[[[2-butyl-1-[(4-carboxyphényl)méthyl]-1H-imidazol-5-yl]méthyl]amino]-benzoïque]
30	CCCCc1ncc(CNc2ccccc2C(=O)OCC(=O)N(CC)CC)n1Cc1ccc(C(=O)OCC(=O)N(CC)CC)cc1 [exemple 68, acide 2-[[[2-butyl-1-[(4-((((diéthylamino)carbonyl)méthoxy)carbonyl)phényl)méthyl]-1H-imidazol-5-yl]méthyl]amino]-benzoïque, ((diéthylamino)carbonyl)méthyl ester]
